In ChEMBL document CHEMBL1201862, “PubChem BioAssay data set” (2004):
Calls of active or inactive are those of the source.

Tests used:
Leucine aminopeptidase = molecular target: T1, Leucine aminopeptidase (Plasmodium falciparum 3D7, UniProt Q8IL11); experiment: P. falciparum M17LAP inhibitors, primary screen, biochemical, fluorogenic H-Leu-NHMec substrate, 1536-well (AID 1619); assay type: functional
T1 sequence (Q8IL11 whole entry): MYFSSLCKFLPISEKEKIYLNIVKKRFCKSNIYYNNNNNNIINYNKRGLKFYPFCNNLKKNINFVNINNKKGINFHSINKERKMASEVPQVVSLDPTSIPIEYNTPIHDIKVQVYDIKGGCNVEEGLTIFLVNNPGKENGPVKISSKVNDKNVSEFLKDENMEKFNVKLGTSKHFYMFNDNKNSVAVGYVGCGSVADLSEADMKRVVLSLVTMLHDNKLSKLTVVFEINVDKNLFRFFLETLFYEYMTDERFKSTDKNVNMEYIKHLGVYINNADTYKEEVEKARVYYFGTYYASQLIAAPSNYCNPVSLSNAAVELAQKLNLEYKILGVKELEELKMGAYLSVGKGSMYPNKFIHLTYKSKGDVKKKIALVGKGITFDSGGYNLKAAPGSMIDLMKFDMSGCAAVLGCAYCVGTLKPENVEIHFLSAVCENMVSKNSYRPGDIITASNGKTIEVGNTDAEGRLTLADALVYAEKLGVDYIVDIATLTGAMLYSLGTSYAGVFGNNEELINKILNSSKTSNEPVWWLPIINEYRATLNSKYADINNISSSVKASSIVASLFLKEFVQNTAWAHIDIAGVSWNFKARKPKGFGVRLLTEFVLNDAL

Aspartyl aminopeptidase = molecular target: T2, Aspartyl aminopeptidase (Plasmodium falciparum 3D7, UniProt Q8I2J3); experiment: Counterscreen for inhibitors of M1 and M17 aminopeptidases: QFRET-based biochemical high throughput dose response assay for inhibitors of the Plasmodium falciparum M18 Aspartyl Aminopeptidase (PFM18AAP). [Related PubChem assays: 1619 (Screening assay (M17LAP inhibitors).), 1445 (Screening assay (M1AAP inhibitors).)]
T2 sequence (Q8I2J3 whole entry): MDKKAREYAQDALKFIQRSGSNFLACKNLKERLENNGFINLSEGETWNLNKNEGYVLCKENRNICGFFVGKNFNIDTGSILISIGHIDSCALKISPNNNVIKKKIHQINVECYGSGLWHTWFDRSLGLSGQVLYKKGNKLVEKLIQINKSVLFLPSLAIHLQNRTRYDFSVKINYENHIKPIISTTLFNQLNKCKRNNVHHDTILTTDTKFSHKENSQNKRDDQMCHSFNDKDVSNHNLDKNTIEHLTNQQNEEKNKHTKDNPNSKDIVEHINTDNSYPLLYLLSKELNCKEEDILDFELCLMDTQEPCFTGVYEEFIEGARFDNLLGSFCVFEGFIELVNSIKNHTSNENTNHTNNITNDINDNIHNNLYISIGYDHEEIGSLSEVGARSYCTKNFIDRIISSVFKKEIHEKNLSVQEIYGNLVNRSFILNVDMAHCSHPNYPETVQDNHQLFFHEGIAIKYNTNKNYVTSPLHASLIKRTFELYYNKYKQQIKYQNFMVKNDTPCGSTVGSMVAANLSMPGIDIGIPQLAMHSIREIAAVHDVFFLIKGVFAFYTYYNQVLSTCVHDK

Procathepsin L = Procathepsin L (Homo sapiens, UniProt P07711); experiment: CTSL1 protease inhibition – biochemical, QFRET, 1536-well, counter-screen for M1/M17 aminopeptidase inhibitor project, dose response (AID 2214)
Chain of Procathepsin L (P07711 whole entry): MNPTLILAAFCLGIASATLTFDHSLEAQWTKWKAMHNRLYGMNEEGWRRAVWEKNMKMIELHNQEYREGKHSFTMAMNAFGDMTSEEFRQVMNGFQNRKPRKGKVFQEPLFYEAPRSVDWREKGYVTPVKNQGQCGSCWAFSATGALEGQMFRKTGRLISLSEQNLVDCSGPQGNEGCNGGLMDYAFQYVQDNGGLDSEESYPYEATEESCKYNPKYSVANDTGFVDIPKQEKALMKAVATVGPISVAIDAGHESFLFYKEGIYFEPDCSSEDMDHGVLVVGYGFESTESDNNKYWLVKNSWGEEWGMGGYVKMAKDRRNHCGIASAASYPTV

Estrogen receptor = molecular target: T3, Estrogen receptor (Homo sapiens, UniProt P03372);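 further: potency for inhibiting coactivator peptide recruitment to the receptor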
T3 sequence (P03372 whole entry): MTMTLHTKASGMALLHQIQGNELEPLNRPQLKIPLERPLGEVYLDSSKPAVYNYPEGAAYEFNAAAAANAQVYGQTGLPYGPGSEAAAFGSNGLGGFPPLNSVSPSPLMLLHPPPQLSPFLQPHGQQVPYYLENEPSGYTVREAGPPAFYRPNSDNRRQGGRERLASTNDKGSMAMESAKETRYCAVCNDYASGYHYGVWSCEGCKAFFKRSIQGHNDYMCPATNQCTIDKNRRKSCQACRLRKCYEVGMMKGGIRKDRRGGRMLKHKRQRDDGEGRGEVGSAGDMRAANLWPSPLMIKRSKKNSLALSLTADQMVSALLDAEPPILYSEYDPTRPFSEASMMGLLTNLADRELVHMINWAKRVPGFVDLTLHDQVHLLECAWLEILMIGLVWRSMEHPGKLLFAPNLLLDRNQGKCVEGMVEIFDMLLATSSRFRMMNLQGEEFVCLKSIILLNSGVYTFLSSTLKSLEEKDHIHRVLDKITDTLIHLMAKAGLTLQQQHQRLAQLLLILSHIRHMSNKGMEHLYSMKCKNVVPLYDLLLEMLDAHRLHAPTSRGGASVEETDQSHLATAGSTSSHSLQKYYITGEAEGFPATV

[1] = molecular target: T4, Tyrosine-protein phosphatase non-receptor type 7 (Homo sapiens, UniProt P35236); assay type: functional
T4 sequence (P35236 whole entry): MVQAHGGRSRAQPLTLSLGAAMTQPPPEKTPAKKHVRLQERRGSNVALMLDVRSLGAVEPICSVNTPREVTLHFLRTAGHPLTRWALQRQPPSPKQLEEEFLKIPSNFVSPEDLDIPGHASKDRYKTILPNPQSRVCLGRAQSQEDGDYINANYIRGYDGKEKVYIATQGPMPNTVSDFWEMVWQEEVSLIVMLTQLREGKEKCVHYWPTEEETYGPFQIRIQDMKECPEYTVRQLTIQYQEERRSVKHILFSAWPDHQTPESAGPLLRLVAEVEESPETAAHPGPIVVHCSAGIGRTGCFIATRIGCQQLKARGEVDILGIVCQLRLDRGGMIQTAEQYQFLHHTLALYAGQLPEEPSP

[2] = molecular target: Glyceraldehyde-3-phosphate dehydrogenase (Homo sapiens, UniProt P04406)
Chain of Glyceraldehyde-3-phosphate dehydrogenase (P04406 whole entry): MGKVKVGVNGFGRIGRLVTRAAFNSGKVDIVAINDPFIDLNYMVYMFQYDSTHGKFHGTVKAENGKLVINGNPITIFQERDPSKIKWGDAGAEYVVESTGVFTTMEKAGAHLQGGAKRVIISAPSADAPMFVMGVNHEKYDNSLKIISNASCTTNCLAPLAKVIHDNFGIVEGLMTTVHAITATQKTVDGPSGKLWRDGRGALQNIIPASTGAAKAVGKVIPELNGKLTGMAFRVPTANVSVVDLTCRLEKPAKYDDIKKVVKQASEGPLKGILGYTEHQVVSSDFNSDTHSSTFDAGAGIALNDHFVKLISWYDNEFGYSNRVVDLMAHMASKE

[3] = molecular target: T5, Dual specificity protein phosphatase 6 (Rattus norvegicus, UniProt Q64346)
T5 sequence (Q64346 whole entry): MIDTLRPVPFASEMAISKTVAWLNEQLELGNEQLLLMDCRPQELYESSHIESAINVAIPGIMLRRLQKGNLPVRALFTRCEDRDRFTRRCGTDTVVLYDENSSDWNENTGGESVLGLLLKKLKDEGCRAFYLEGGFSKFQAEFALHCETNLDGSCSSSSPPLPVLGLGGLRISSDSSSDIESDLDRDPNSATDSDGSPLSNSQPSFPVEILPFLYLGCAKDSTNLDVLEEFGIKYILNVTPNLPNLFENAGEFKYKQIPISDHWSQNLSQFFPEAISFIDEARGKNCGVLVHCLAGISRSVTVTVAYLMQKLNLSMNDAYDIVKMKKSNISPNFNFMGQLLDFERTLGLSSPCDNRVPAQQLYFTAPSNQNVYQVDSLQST

[4] = molecular target: T5, Dual specificity protein phosphatase 6; assay type: functional
[5] = Trypanosoma cruzi growth suppression in host cells – NIH3T3 host cells, beta-gal luminescence, confirmation (AID 2044); assay type: functional, cell-based;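 further: intracellular parasites grown in NIH/3T3 mouse fibroblasts as host cells; luminescent beta-galactosidase reporter signal from transgenic T. cruzi replicating inside host cells; inhibitors lower the luminescence signal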
[6] = NIH3T3 cell viability loss – ATP luminescence, mouse fibroblasts, counter-screen, dose response (AID 2010); assay type: functional, cell-based;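 further: cells exposed to compound for about 90 hours before reading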
cells [7] = experiment: cells
[8] = A cytotoxicity screen of small molecule inhibitors of the PhoP region in Salmonella typhi identified in the primary screen. [Related pubchem assays: 1850, 1864, 1985 ]; assay type: functional
[9] = viability of uninfected HEp-2 cells – cell-based, HTS, cytotoxicity control for RSV inhibitor project, dose response (AID 2410); assay type: functional; conditions: human respiratory syncytial virus
cells [10] = experiment: cells; remark: listed apart in the source

O=C(CSc1nccc(O)n1)Nc1ccc(Br)c(Cl)c1
IC50 (Leucine aminopeptidase): 2.5 µM (active) | IC50 (Aspartyl aminopeptidase): > 73.5 µM (not active) | IC50 (Procathepsin L): > 59.6 µM (not active)

N#Cc1nc(-c2ccc(OCc3ccc(Cl)cc3)cc2)oc1NCc1cccnc1
IC50 (Estrogen receptor): 37.4 µM (not active)

Cc1cc(NC(=O)/C=C/c2cccs2)no1
IC50 [1]: > 100 µM (not active) | IC50 [2]: 62.6 µM (active) | IC50 [3]: > 100 µM (inactive) | IC50 [4]: > 100 µM (inactive)

COc1ccc(Cl)cc1NC(=O)c1oc(C)nc1C
IC50 (Estrogen receptor): > 50 µM (not active)

COc1cc(CN(C)CCc2ccccc2)ccc1OCc1ccccc1
EC50 [5]: < 0.1 µM (active) | EC50 [6]: 19.1 µM (active) | EC50 (cells [7]): 0.006 µM (active)

Cc1ccc(/C=C2\SC(=S)N(c3cccnc3)C2=O)o1
EC50 [8]: > 50 µM (active) | EC50 [5]: 2.36 µM (active) | EC50 [6]: > 60 µM (not active)

CC(=O)c1ccc2c(c1)C1C=CCC1C(c1ccc(S(=O)(=O)N3CCOCC3)cc1)N2 (stereo not given)
CC50 [9]: 17.2 µM (active) | IC50 (cells [10]): 22.5 µM (active)

C/C(N)=C(/C#N)C(=O)CSc1cc(C)c2cc(C)cc(C)c2n1
EC50 [5]: 4.13 µM (active) | EC50 [6]: > 60 µM (not active) | IC50 (cells [10]): 12 µM (active)
